Measured values from a melting point compilation (Tetko et al.; mined from patent text by program, amines drawn as free bases though some values may be those of a salt).
Residues, ends and D or L forms follow the SMILES beside them. *: point of attachment. Boc = CC(C)(C)OC(=O)*

SMILES | melting point
CNC(=O)ON=C1SCC(=O)N1CCOC | 153 to 155 °C
O=S(=O)(c1ccc(Oc2ccccc2)cc1)N1CC1 | 136 to 138 °C
COc1ccc(S(=O)(=O)N(C)C)c(N)c1 | 59 to 64 °C
CON(C)C(=O)Nc1ccc(Oc2ccc3ccccc3c2)c(C(F)(F)F)c1 | 129 to 130 °C
COC(=O)c1cc(=O)c2ccccc2o1 | 120 to 122 °C
O=C1[C@@H](O)CCN1CC#CCn1ccnc1 | 127 to 128 °C
CCc1nc(/C=C\c2cn(-c3ccccc3)nc2OCc2ccc(OCc3nc(-c4ccco4)oc3C)c(OC)c2)cs1 | 108 to 109 °C
COc1ccccc1SCCCCCCCC(=O)O | 62 to 63 °C
COc1cc(CCBr)cc2c1OCO2 | 78 to 79 °C
NS(=O)(=O)CCNC(=O)OCc1ccccc1 | 107 to 109 °C
NC(=O)/C(=N/O)c1ccccc1Oc1ccccc1 | 157 to 159 °C
CCC(C)(C)c1ccc(OCCCC(=O)Nc2ccc(Cl)c(NC(=O)C(C(=O)c3ccc(OC)cc3)N3C(=O)NC(=C(C)C)C3=O)c2)c(C(C)(C)CC)c1 (centres undefined) | 140 to 141 °C
COc1ccc(CN(CCCC(N)=O)Cc2ccc(OC)cc2)cc1 | 53 to 54 °C
O=C(CSc1ccncc1)C12CC3CC(CC(C3)C1)C2 | 114 to 115 °C
O=S(=O)(Nc1ncnc(Cl)c1-c1ccc(OCc2ccccc2)cc1)c1ccc(Cl)cc1 | 234 to 236 °C
COC(=O)c1cc(-c2cc(-c3ccccc3O)nc(NC(=O)c3cccs3)c2C#N)ccc1OC | 271 to 273 °C
O=C(Nc1cccc(-c2ncno2)c1)Oc1ccc([N+](=O)[O-])cc1 | 195 to 197 °C
CC(C)Cc1cccc(CCCn2c(=O)c3c(Cl)cc(Cl)cc3n(Cc3ccccc3)c2=O)c1 | 108 to 111 °C
COC(=O)C(=O)N1C(=O)[C@H](N2C(=O)c3ccccc3C2=O)[C@H]1Cl | 49 to 52 °C
CC(=O)N(C)c1cccc(OC(CCc2ccc(Cl)cc2)Cn2ccnc2)c1 (centres undefined) | 229 to 231 °C
Nc1ccc(S(=O)(=O)c2cc(-c3ccsc3)nc(N3CCCC3)c2)cc1 | 260 °C
Nc1ncc(CCc2ccccc2)cc1[N+](=O)[O-] | 145 to 146 °C
COc1cc(N)c(Cl)cc1C(=O)NCCN1CCC2(CC1)C(=O)NCN2c1ccccc1 | 247 °C

SMILES | melting point
COc1cccc(NS(=O)(=O)c2cccc(C=CC(=O)NO)c2)c1 | 137 °C
c1cncc(OCCCn2cc(-c3cc4nccnc4[nH]3)c3ccccc32)c1 | 208 to 209 °C
N#Cc1c(-c2cccc(N)c2)cc(-c2ccccc2O)nc1NC(=O)C1CCCCC1 | 236 to 238 °C
CCCCc1nn(-c2cc([N+](=O)[O-])ccc2Cl)c(=O)n1Cc1ccc(-c2ccccc2S(=O)(=O)NC(C)(C)C)cc1 | > 75 °C
Nc1nc(-c2ccc(CCCCCl)s2)cs1 | 99 to 100 °C
Cc1cccc(CSc2c(O)cc(-c3ccccc3)oc2=O)c1 | 139 to 140 °C
O=C(Nc1ccc2ccc(Cl)nc2n1)c1cccs1 | 244 °C
Cn1cc([C@H]2CC[C@@H](N3CCN(c4cc(Br)cc5cccnc45)CC3)CC2)c2cc(F)ccc21 | 215 to 217 °C
CC(C)(C)OC(=O)N1CCCC1C(=O)NC(Cc1ccccc1)C(=O)NCC(=O)O (stereo not drawn) (Boc-Pro-Phe-Gly-OH; configuration not given here) | 98 to 100 °C
COc1ccc(CCNc2nc(N)c3nc(-c4ccco4)oc3n2)cc1OC | 155 to 158 °C
O=C(O)CCCNC(=O)c1ccccc1NC(=O)c1ccccc1Cl | 110 to 112 °C
C#CCOC(=O)N(I)C(C)C(=O)OC (centres undefined) | 100 to 102 °C
C[Si](C)(c1ccccc1)c1ccccc1CO | 53 to 54 °C
O=[N+]([O-])c1ccc(Oc2ccc(CBr)cc2)cc1 | 68 to 70 °C
Cc1ccc(N(Cc2ccc(N(C)C)cc2)C(=O)Nc2c(C(C)C)cccc2C(C)C)c(C)c1 | 100 °C
COc1ccc(-c2cc(F)c(F)cc2-c2ccc(S(N)(=O)=O)cc2)cc1OC | 157 to 158 °C
CCCC(=O)Nc1cc(Oc2ccc(Cl)cc2)ccc1NC(=NC(=O)OC)NC(=O)OC | 201 °C
CC(C)(C#N)c1cc(CCl)cc(C(C)(C)C#N)c1 | 119 to 121 °C
CCCC(=O)Nc1c(C)c(C)c2c(c1C)C(c1ccc(C(C)C)cc1)C(C)(C)O2 (centres undefined) | 120 to 122 °C
Cc1cccc(Cl)c1N1Cc2cnc(Nc3ccccc3)nc2N(c2cccc(CCN)c2)C1=O | 192 °C
Fc1cc(F)c2[nH]c3c(c2c1)CC(N1CCCCC1)CC3 (centres undefined) | > 290 °C
O=C(COc1ccc(Cl)cc1)C1(Cl)CC1 | 78 °C

The next lines start with the values.

melting point | SMILES
121 to 124 °C | CCNC(=O)c1c([Si](C)(C)C)sc2ccccc12
218 °C | N#CC(C(=O)c1ccc(Cl)cc1)=C1CCCN1C(=O)c1ccc(Cl)cc1
83 to 85 °C | COC1=C(OC)C(=O)C(CCCCCCCCCC(=O)N[C@@H](CCSC)C(=O)O)=C(C)C1=O
258 to 260 °C | CCOc1sc(C(=O)O)c2c1-c1c(cnn1C)CC2
129 to 130 °C | Cc1ccc(-c2ccc3c(c2)C=C(C(=O)Nc2ccc(CN(C)C4CCOCC4)cc2)CCO3)s1
193 to 194 °C | COc1ccc(C(=O)N2CCc3cc(S(=O)(=O)N4CCN(c5cccc(Cl)c5)CC4)ccc32)cc1
157 to 158 °C | Cc1sc(-c2ccccc2)nc1COc1ccc(Cn2cc(CCC(=O)O)c(-c3ccccc3)c2)cc1
152 to 154 °C | CC(C)N(C(=S)NC(=O)c1ccccc1)c1ccc2c(c1)OCO2
217 to 220 °C | CCOc1cc(-c2nc3ccccc3[nH]2)n[nH]1
134 to 135 °C | O=C(O)COc1ccc(SCc2ccc(OCc3cc(Cl)cc(Cl)c3)cc2)c2c1CCC2
206 to 208 °C | CS(=O)(=O)NCCCCn1c(CCO)nc2c(N)nc3ccccc3c21
159 to 161 °C | CCOC(=O)C1=C(C(F)(F)F)Nc2n[nH]cc2C1c1ccc(OC)cc1 (centres undefined)
112 to 115 °C | CCOC(=O)CNc1ncccc1NC(=O)c1ccc(C)s1
172 to 174 °C | COc1cccc(-c2n[nH]c3c2Cc2ccccc2-3)c1
153 to 154 °C | Cc1cc(OCC(F)(F)F)c(NC(=O)CBr)c(OCC(F)(F)F)n1
110 to 112 °C | O=C(O)COc1cccc2c1Cc1sc(SCCCC(c3ccccc3)c3ccccc3)nc1-2
> 275 °C | N=C(N)N1CCC(CCC(=O)O)CC1
> 310 °C | Cc1nc(-c2ccccc2)nc2sc3c(N4CCNCC4)nc(Cl)nc3c12
86 to 87 °C | CN(C)C(=O)c1ccc2ccccc2c1-c1ccccc1
190 to 194 °C | COc1ccc(C(=O)Nc2ccc(C)cc2)cc1N
197 to 198 °C | Cc1ccccc1C(=O)Nc1ccc(C(=O)N2CCCC(N(C)S(C)(=O)=O)c3ccccc32)cc1 (centres undefined)
115 to 116 °C | O=C(O)C(O)N1C(=O)CCN1c1cccc(F)c1 (centres undefined)
186 to 188 °C | CCCCOC(=O)NCc1nc(-c2ccc3c(c2)Nc2ccccc2S3)cs1
> 330 °C | CC(C)(C)Nc1nc2ccc(Cl)cc2c2nc(-c3ccco3)nn12
138 to 139 °C | CCCCCNc1cc(C(=O)OCCCCC)cc(S(N)(=O)=O)c1Oc1ccccc1
116 to 117 °C | COc1ccc2c(c1)-c1c(nn(-c3ccccn3)c1O)CC2
243 to 245 °C | Cc1ccc(N2C(=O)C(O)=C(C(=O)c3ccc(C(C)C)cc3)C2c2ccc(OC(C)C)cn2)nn1 (centres undefined)

melting point | SMILES
103 to 108 °C | CC(=O)N1CCCC1CN1C(=O)C2(COc3cc4c(cc32)CCO4)c2ccccc21 (centres undefined)
147 to 148 °C | O=C(O)c1cccc(-c2ccccc2F)c1
206 °C | Cc1cnc(N2CCN(CC[C@H]3CC[C@H](NC(=O)CC4CCOCC4)CC3)CC2)c2ccoc12
130 °C | COC(=O)C1Cc2c([nH]c3ccccc23)C(c2ccoc2)N1 (centres undefined)
199 to 200 °C | O=C(O)CCc1oc(N2CCCC2)nc1-c1ccc(Cl)cc1
165 to 168 °C | CCC(CO)Nc1nc(C)nc2c(C)nn(C)c12 (centres undefined)
189 °C | CN1CC=C(SC(c2cccc(Br)c2)c2nc3ccccc3[nH]2)CC1 (centres undefined)
248 to 250 °C | O=C(O)c1ccc2c(Br)cccc2c1
227 °C | CNc1nc(-c2ccc(Cl)c(Cl)c2)ncc1N(C)C(=O)N1CCOCC1
238 to 240 °C | CN1CCN(c2n[nH]c(-c3ccc(F)cc3)c2-c2ccncc2)CC1
272 °C | Cc1c(OCC2=NCCN2)ccc(Br)c1NS(C)(=O)=O
125 to 126 °C | Cc1oc(-c2ccc(C(F)(F)F)cc2)nc1COc1cccc(CN(O)C(N)=O)c1
59 to 61 °C | CCOC(=O)c1ccoc1COc1cc(-c2nn(C)c(OC(F)F)c2Cl)c(F)cc1Cl
124 °C | CCOC(=O)/C=C/c1ccc(O)cc1Oc1ncc(C(F)(F)F)cc1Cl
148 to 149 °C | COCCOC1CC(c2ccccc2)Oc2c1ccc1c2nc(C)n1C (centres undefined)
206 to 208 °C | COc1cccc(NC(=O)NCc2nnc(C)n2-c2sc(C(=O)O)cc2C(=O)c2ccccc2Cl)c1
331 to 333 °C | NC(=O)c1nc(-c2cccnc2)nc2c1[nH]c(=O)n2[C@H]1CC[C@H](O)CC1
207 to 208 °C | CN(C1=CC(=O)c2nccnc2C1=O)c1ccccc1
152 °C | Cn1c(Sc2ccccc2)c(C=NO)c(=O)n(C)c1=O
142 to 146 °C | CCCC=NNc1cc2c(nn1)CCN(C(=O)OCC)C2
252 to 257 °C | COCCNC(=O)Nc1nc2ccc(Sc3nnc4ccccn34)cc2s1
188 °C | O=C(Nc1cc2ncc(CN3CCCC3)cc2cc1Cl)c1ccc(-c2ccc(F)cc2)cc1
178 to 180 °C | CC(=O)Oc1ccc(-n2c(-c3ccccc3)cc3ccccc32)cc1C(=O)O
133 to 135 °C | Cc1cc2c(s1)CCCC(=O)N2
208 to 212 °C | O=C(O)Cc1c(C(=O)c2cccc(Cl)c2)[nH]c2ccc(F)cc12
167 to 168 °C | O=C(O)c1ccc(F)c(F)c1Cl
109 to 112 °C | COC(=O)Cc1ccc(-c2nc3ccccc3o2)cc1
